From patent US6552011B1, “(Androst-5-en-17beta -yl)alkyl sulfoxides and sulfones and their use for control of fertility” (Akzo Nobel NV, priority 1999, dated 2003)

Assays:
Type in all cases: cell-based, mice (B6D2-F1, strain C57BL×DBA)
denuded oocytes (DO) [1] = experiment: Oocyte assay, agonistic testing, DO assay (overcoming hypoxanthine maintained meiotic arrest); settings: hypoxanthine 4 mM medium, 22 hours culture, number in brackets = control
Source text: Oocytes arrested in meiosis contain diffused chromosomes which are surrounded by an intact nuclear envelope known as the germinal vesicle (GV). Upon reinitiation of meiosis by the midcycle gonadotropin surge, the chromosomes recondense and the GV breaks down (GVBD). In vivo, the oocyte is exposed to hypoxanthine (HX), which maintains the oocyte arrested in the meiotic prophase. This meiotic arrest can be mimicked in vitro by addition of hypoxanthine to the culture medium. The agonistic activity of meiosis activating substances is measured as the ability to overcome the hypoxanthine maintained meiotic arrest in denuded oocytes (DO) or cumulus enclosed oocytes (CEO), i.e. as the ability to induce meiotic resumption in vitro.
(§1) Ovaries are obtained from immature female mice (B6D2-F1, strain C57BL×DBA). At the age of 19, 20 or 21 days the mice are injected subcutaneously with a single dose of 20 IU follicle stimulating hormone (Humegon, Organon, The Netherlands) in saline.
Forty-eight hours after follicle stimulating hormone injection mice are killed by cervical dislocation. The ovaries are removed, freed of extraneous tissue and placed in a multidish containing 0.5 ml preparation medium at 37° C. L-15 Leibovitz medium (Gibco, pH 7.3±0.1) supplemented with bovine serum albumin (3 mg.ml^−1), L-glutamine (0.23 mM), sodium pyruvate (2 mM) and hypoxanthine (4 mM) is used as preparation medium. The antral follicles of the ovaries are punctured under a dissecting microscope using two 27-gauge needles attached to two 1 ml syringes. Cumulus enclosed oocytes (CEO) of uniform size are selected with a mouth-controlled pipette and rinsed in 0,5 ml fresh preparation medium. About 20 CEO are obtained from one ovary.
Oocytes freed from cumulus cells, i.e. denuded oocytes (DO), are obtained by gently flushing CEO through a fine-bore mouth-controlled pipette. DO were collected in fresh MEM alpha medium, containing bovine serum albumin (3 mg.ml^−1), L-glutamine (0.23 mM), sodium pyruvate (2 mM) and hypoxanthine (4 mM), and washed twice before transfer to the test medium.
(§2) The oocyte assay is performed in 3 blocks, each block represents the ovaries of one mouse (randomized block design). […] At t=0 the number of oocytes with intact germinal vesicles (GV) or germinal vesicle break-down (GVBD) is counted under an inverted microscope with differential interference contrast equipment. […] At the end of the culture period the number of oocytes with GV or GVBD per group is counted. For statistical analysis the percentage germinal vesicle breakdown is calculated for each group in one block. These percentages are subjected to arcsin transformation, and differences between control and test compounds are analyzed by an ANOVA test for a randomized block design. […]

[2] = test system: cumulus enclosed oocytes (CEO); experiment: Oocyte assay, antagonistic testing, CEO assay (inhibition of 22S-hydroxy-FF-Mas induced oocyte maturation); settings: 22S-hydroxy-FF-Mas 5 μM, hypoxanthine 4 mM medium, 22 hours culture, number in brackets = control (22S-hydroxy-FF-Mas alone)
Method: (§3) The meiosis inhibiting activity of the (androst-5-en-17β-yl)alkyl sulfoxides and sulfones of the invention is measured in an in vitro oocyte assay as the ability to inhibit the FF-Mas or 22S-hydroxy-FF-Mas induced maturation, in hypoxanthine media, in denuded oocytes (DO) or cumulus enclosed oocytes (CEO), respectively. The compounds can be used to inhibit meiosis in both male and female and thus can be used as contraceptive agents.
(§4) Natural resumption of meiosis can be mimicked in vitro by addition of FF-Mas or other agonists to the culture medium containing hypoxanthine. The antagonistic activity of the compounds is measured as the ability to inhibit the FF-Mas or 22S-hydroxy-FF-Mas induced oocyte maturation in denuded oocytes or cumulus enclosed oocytes, respectively, in vitro.
as §1
Forty-eight hours after follicle stimulating hormone injection mice are killed by cervical dislocation. The ovaries are removed, freed of extraneous tissue and placed in a multidish containing 0.5 ml preparation medium at 37° C. […]
as §2

denuded oocytes (DO) [3] = experiment: Oocyte assay, antagonistic testing, DO assay (inhibition of FF-Mas induced oocyte maturation); settings: FF-Mas 5 μM, compound 5 μM, hypoxanthine 4 mM medium, 22 hours culture, number in brackets = control (FF-Mas alone)
Method: as §3, §4, §1
Forty-eight hours after follicle stimulating hormone injection mice are killed by cervical dislocation. The ovaries are removed, freed of extraneous tissue and placed in a multidish containing 0.5 ml preparation medium at 37° C. L-15 Leibovitz medium (Gibco, pH 7.3±0.1) supplemented with bovine serum albumin (3 mg.ml^−1), L-glutamine (0.23 mM), sodium pyruvate (2 mM) and hypoxanthine (4 mM) is used as preparation medium. […]
as §2, with “block.” for “block. These percentages are subjected to arcsin transformation, and differences between control and test compounds are analyzed by an ANOVA test for a randomized block design.”

SMILES: CC(C)=CC[C@H](O)[C@@H](C)[C@H]1CC=C2C3=C(CC[C@@]21C)[C@@]1(C)CC[C@H](O)C(C)(C)[C@@H]1CC3 [22S-hydroxy-FF-Mas, (3β,5α,20S,22S)-4,4-dimethylcholesta-8,14,24-triene-3,22-diol, reference compound]
- % GVBD DO assay exp.(control) (denuded oocytes (DO) [1]; compound 5 μM): 97(2) %

SMILES: C[C@H](C[S@@+]([O-])c1ccccc1)[C@H]1CC[C@H]2[C@@H]3CC=C4C(C)(C)[C@@H](O)CC[C@]4(C)[C@H]3CC[C@]12C [Example 3a, [3β,20S,(21R)]-4,4,20-Trimethyl-21-(phenylsulfinyl)pregn-5-en-3-ol]
- % GVBD DO assay exp.(control) (denuded oocytes (DO) [1]; compound 5 μM): 4(12) %
- % GVBD CEO assay exp.(control) ([2]; compound 1.0 μM): 34(96)^3%
- % GVBD DO assay exp.(control) (denuded oocytes (DO) [3]): 4(84) %

SMILES: C=C(C)C[S@+]([O-])C[C@@H](C)[C@H]1CC[C@H]2[C@@H]3CC=C4C(C)(C)[C@@H](O)CC[C@]4(C)[C@H]3CC[C@]12C [Example 1a, [3β,20S,(21R)]-4,4,20-Trimethyl-21-[(2-methyl-2-propenyl)sulfinyl]pregn-5-en-3-ol]
- % GVBD DO assay exp.(control) (denuded oocytes (DO) [1]; compound 5 μM): 3(12) %
- % GVBD CEO assay exp.(control) ([2]; compound 1.0 μM): 9(96)^3%
- % GVBD DO assay exp.(control) (denuded oocytes (DO) [3]): 14(84) %

SMILES: CC(C)=CCC[C@@H](C)[C@H]1CC=C2C3=C(CC[C@@]21C)[C@@]1(C)CC[C@H](O)C(C)(C)[C@@H]1CC3 [FF-Mas, (3β,5α,20R)-4,4-dimethylcholesta-8,14,24-trien-3-ol, reference compound]
- % GVBD DO assay exp.(control) (denuded oocytes (DO) [1]; compound 10 μM): 84(7) %

SMILES: CC(C)CC[C@@H](O)[C@@H](C)[C@H]1CC[C@H]2[C@@H]3CC=C4C[C@@H](O)CC[C@]4(C)[C@H]3CC[C@]12C [22R-hydroxycholesterol, (3β,20S,22R)-cholest-5-en-3-ol, reference compound]
- % GVBD CEO assay exp.(control) ([2]; compound 2.5 μM): 52(89)^4%
- % GVBD DO assay exp.(control) (denuded oocytes (DO) [3]): 38(89) %
